Patent US10537549B2, “Dihydroisoxazole compound for use in controlling sea lice” (Elanco Tiergesundheit AG, priority 2016, dated 2020)

How the values were obtained:
[1] = test system: Lepeophtheirus Salmonis at Copepodid Stage; assay: Activity in vitro against Lepeophtheirus salmonis at copepodid stage; conditions: 1 hour contact, then 48 h in untreated sea water
Procedure: Stir a mixture of 3-[(5S)-5-(3,4,5-trichlorophenyl)-5-(trifluoromethyl)-4H-isoxazol-3-yl]-4,5,6,7-tetrahydro-2-benzothiophene-1-carboxylic acid (15.00 g, 30.08 mmol), 2-amino-N-prop-2-ynyl-acetamide (4.90 g, 33.09 mmol, HCl), 1-[bis(dimethylamino)methylene]-1H-1,2,3-triazolo[4,5-b]pyridinium 3-oxid hexafluorophosphate (13.72 g, 36.10 mmol) and N,N-diisopropylethylamine (11.66 g, 90.24 mmol) in dichloromethane (500 mL) at 25° C. for 12 hours. Use thin layer chromatography (petroleum ether:ethyl acetate=3:1, Rf=0.30) to show the reaction progress. Dilute the mixture in water (500 mL) and extract with dichloromethane (500 mL×3). Wash the organic layer with brine (500 mL), dry over sodium sulfate, filter and concentrate under reduced pressure to dryness. […]

[2] = test system: Lepeophtheirus Salmonis (copepodids, MERL resistant strain IoA-01) on Atlantic Salmon; assay: Activity in vivo against Lepeophtheirus salmonis on Atlantic Salmon using in-feed application; conditions: in-feed 5 mg/kg/day for 7 days
Procedure: Activity In Vivo Against Lepeophtheirus Salmonis on Atlantic Salmon Using in-Feed Application
60 Salmon (Atlantic Salmon, S. salar) of average weight 306.5 g are treated with medicated pellets containing the compound of Example 1 (test compound) at a dose of 5 mg/kg/day during 7 consecutive days. The medicated pellets are prepared by dry coating commercially available fish feed pellets with pre-mix containing the test compound to reach a content of […] test compound in the fish feed, sealing with 1% fish oil and administering at a 1% feeding rate. The treatment is carried out in sea water. After treatment, the fish are challenged with copepodids (the MERL resistant strain IoA-01) on 35, 100 and 150 days post-treatment. During the study the water temperature varies between 7 and 10° C. Fish weight and sea louse numbers are assessed 42, 107 and 157 days post-treatment. Counts are conducted on 30 fish at each sampling occasion.
Efficacy is determined by comparison with a negative control (placebo) group.
Efficacy is calculated using the formula: % Efficacy=100−(100×mean of treatment group/mean of control).
All fish are anaesthetized with 2-phenoxy-ethanol and examined for louse settlement under a dissecting microscope. After counting, fish are returned to the tanks.

## C#CCNC(=O)CNC(=O)c1sc(C2=NO[C@@](c3cc(Cl)c(Cl)c(Cl)c3)(C(F)(F)F)C2)c2c1CCCC2 [Example 1, N-[2-oxo-2-(prop-2-ynylamino)ethyl]-3-[(5S)-5-(3,4,5-trichlorophenyl)-5-(trifluoromethyl)-4H-isoxazol-3-yl]-4,5,6,7-tetrahydro-2-benzothiophene-1-carboxamide]
[1]; 0.5 ng/ml sea water
  efficacy (no copepodid moves over a period of 80 seconds): 100%
[1]; serial dilution
  minimal effective dose (MED): dose showing 100% efficacy: ≤ 0.5 ng/ml sea water
[2]; challenge 35 days post treatment (counts at 42 days)
  % Efficacy vs placebo group (sea louse counts): 100%
[2]; challenge 100 days post treatment (counts at 107 days)
  % Efficacy vs placebo group (sea louse counts): 100%
[2]; challenge 150 days post treatment (counts at 157 days)
  % Efficacy vs placebo group (sea louse counts): 100%
